This is an account of results in US4751227A, “3-cyano-5-(6-imidazo[1,2-a]pyridyl)pyridin-2-ols useful as cardiotonics” (Eisai Co., Ltd., priority 1985, dated 1988).

For data set [1], the system named is isolated Guinea Pig heart muscles. Description: Effects of compounds on contractile response of isolated Guinea Pig heart muscles (right ventricular papillary muscles). The following applies: Cavia porcellus, read-out: Contractilities; for activation at 100 µM: Concentration 10^-4 M; for activation at 10 µM: Concentration 10^-5 M; for activation at 1 µM: Concentration 10^-6 M. As to the method: Effects of compounds on contractile response of isolated Guinea Pig heart muscles
Male guinea pigs weighing 300 to 500 g were stunned with a blow on the head and exsanguinated. The chest was opened rapidly, the heart was excised and papillary muscles from the right ventricle were excised.
The preparations were mounted in 10 ml organ bath which were filled with Krebs-Henseleit solution maintained at 36° C. and oxygenated with 95% O2 -5% CO2.
Right ventricular papillary muscles were stimulated electrically at a rate of 1 Hz by a suprathreshold (1.2×threshold) rectangular pulse 3 ms in duration. The resting tension applied to the papillary muscles was adjusted to produce maximum developed tension. The developed tension was recorded isometrically by means of force-displacement transducer. The text compounds were dissolved in diluted hydrochloric acid and were added to the bath. Contractility after administration was compared to that prior to administration.
The test compounds are those prepared in the examples later described.

For data set [2], the system named is platelets. Nature of the data set: Effect of compounds on platelet aggregation caused by collagen. It counts as cell-based, healthy volunteers. Particulars: Homo sapiens, collagen 1 μg/ml, read-out: inhibition rate of platelet aggregation. As to the method: Effect of compounds on platelet aggregation
Using platelets obtained from healthy volunteers, effect of compounds on platelet aggregation caused by collagen (1 μg/ml) was examined.

Data set [3] has as its system mice. Description: Acute toxicity test by oral administration in mice. Particulars: 3 g/kg, 4 in each group. It counts as in vivo. As to the method:
(§1) Acute toxicity was tested by oral administration in rats and mice. The results reveal that the compounds of the present invention have extremely low toxicity.

Data set [4] relates to rats. Description: Acute toxicity test by oral administration in rats. The data set is classed as in vivo. The following applies: 3 g/kg, 4 in each group. The protocol: as §1
Data set [5] deals with coronary and femoral blood flow. Description: Effect of compounds on coronary and femoral blood flow in anesthetized dogs. The data set is classed as in vivo, mongrel dogs. Particulars: intraarterial. As to the method:
Effect of compounds on coronary and femoral blood flow
Using male and femal mongrel dogs thoracotomized at the left 4th intercostal space under artificial respiration and inhalation anesthesia with Halothane, effect of coronary and femoral blood flow was examined by intrarterial administration. By placing an electromagnetic flowprobe around the left circumflex coronary artery and the femoral artery, the blood flows of both arteries were measured. Shallow catheters were inserted in and fixed to the arterial branch distal to the flowprobe and the test compounds were intrarterially administered through the catheters. In this case, the blood pressure, the heart rate and the cardiac contractility were also recorded simultaneously. Each test compound was used by dissolving it in physiological saline, diluted hydrochloric acid or polyethylene glycol in a dose not accompanied by any change in the blood pressure, the heart rate and the cardiac contractility.

Data set [6] deals with Anesthetized Dog. Nature of the data set: Effect of compounds on cardiac contractility, heart rate and blood pressure in Anesthetized Dog. The data set is classed as in vivo, mongrel dogs. The following applies: intravenous. As to the method: Effect of compounds on cardiac contractility in Anesthetized Dog
Using male and female mongrel dogs subjected to artificial respiration and anesthetized by inhalation of Halothane cardiotonic effect of compounds was examined. The aortic pressure and the left ventricular pressure were recorded with a catheter inserted from the femoral artery into the aorta of the chest and with a micro tip pressure transducer (Millar) inserted from the carotid into the left ventricle, respectively. The heart rate was monitored by means of a tachograph triggered by the left ventricular pressure pulse. As an index of cardiac contractility, a primary differentation (LV dp/dt max) of the left ventricular pressure pulse was recorded. The test compounds were dissolved in physiological saline or diluted hydrochloric acid or polyethylene glycol and the solutions were intravenously given through the catheter inserted into the femoral vein.
Percent changes by the test compounds in cardiac contractility, heart rate and blood pressure obtained by the foregoing method are shown in Table 2, when compared to those prior to administration of the test compounds. In Table 2, the test compounds are those prepared in the examples later described.

As usually defined, the inhibition is the percentage by which the read-out fell short of the control. For the compound `Cc1[nH]c(=O)c(C#N)cc1-c1ccc2nccn2c1` [Example 1, 1,2-Dihydro-5-(imidazo[1,2-a]pyridin-6-yl)-6-methyl-2-oxo-3-pyridinecarbonitrile], the activation at 100 µM in data set [1] was 129%. Besides, in data set [1], the activation at 10 µM worked out at 88%. Moreover, the activation at 1 µM in data set [1] is 40.7%. In addition, in data set [2] (1×10^-6 M), the inhibition at 1 µM came to 41%. In addition, in data set [2] (3×10^-6 M), the inhibition at 3 µM stood at 90%. Moreover, the inhibition at 0.3 µM in data set [2] (3×10^-7 M) was 14%. For the same compound, the “death in acute toxicity test” value in data set [3] and in data set [4] was “no death was noted” in each case. Further, the “Coronary Blood Flow” value in data set [5] (dose 3 ug) is 25 Δ%; in data set [5] (dose 10 ug), 63 Δ%. Moreover, the “Femoral Blood Flow” value in data set [5] (dose 3 ug) is recorded as 18 Δ%; in data set [5] (dose 10 ug), 51 Δ%; in data set [5] (dose 30 ug), 76 Δ%. Also, the “Change in Blood Pressure” value in data set [6] (10 μg/kg) was 0%; in data set [6] (30 μg/kg), -5%; in data set [6] (100 μg/kg), -17%. Besides, the “Change in Cardiac Contractility (LV dp/dt max)” value (“Change in Cardiac Contractility” for short) in data set [6] (10 μg/kg) is reported as 16%; in data set [6] (30 μg/kg), 68%; in data set [6] (100 μg/kg), 97%. In addition, the “Change in Heart Rate” value is 6% in data set [6] (10 μg/kg), 15% in data set [6] (30 μg/kg) and 22% in data set [6] (100 μg/kg).
Regarding `CCc1[nH]c(=O)c(C#N)cc1-c1ccc2nc(C)cn2c1` [Example 2, 1,2-Dihydro-6-ethyl-5-(2-methylimidazo[1,2-a]pyridin-6-yl)-2-oxo-3-pyridinecarbonitrile], in data set [1], the activation at 100 µM was 106%, the activation at 10 µM was 73.5% and the activation at 1 µM amounted to 34.1%.
As to `CCc1[nH]c(=O)c(C#N)cc1-c1ccc2nccn2c1` [Example 6, 1,2-Dihydro-6-ethyl-5-(imidazo[1,2-a]pyridin-6-yl)-2-oxo-3-pyridinecarbonitrile], in data set [6] (10 μg/kg), the “Change in Blood Pressure” value was -1%, the “Change in Cardiac Contractility” value was 14% and the “Change in Heart Rate” value is 0%. In data set [6] (30 μg/kg), the “Change in Blood Pressure” value is reported as -2%, the “Change in Cardiac Contractility” value is on record as 30% and the “Change in Heart Rate” value is given as 5%. Also, in data set [6] (100 μg/kg), the “Change in Blood Pressure” value is -7%, the “Change in Cardiac Contractility” value was 58% and the “Change in Heart Rate” value came to 10%.
As for `Cc1cn2cc(-c3cc(C#N)c(=O)[nH]c3C)ccc2n1` [Example 7, 1,2-Dihydro-6-methyl-5-(2-methylimidazo[1,2-a]pyridin-6-yl)-2-oxo-3-pyridinecarbonitrile], in data set [1], the activation at 100 µM is 130%, the activation at 10 µM was 95.7% and the activation at 1 µM is 56.7%. In addition, in data set [6] (10 μg/kg), the “Change in Blood Pressure” value is listed as 0%, the “Change in Cardiac Contractility” value turned out to be 21% and the “Change in Heart Rate” value worked out at 8%. Moreover, in data set [6] (30 μg/kg), the “Change in Blood Pressure” value is reported as -13%, the “Change in Cardiac Contractility” value worked out at 114% and the “Change in Heart Rate” value turned out to be 18%.
In the case of `Cc1[nH]c(=O)ccc1-c1ccc2nccn2c1` [Example 10, 1,2-Dihydro-6-methyl-5-(imidazo[1,2-a]pyridin-6-yl)-2-oxo-pyridine], in data set [1], the activation at 100 µM was determined as 110%, the activation at 10 µM came out at 76.3% and the activation at 1 µM is 37.9%. Also, in data set [6] (10 μg/kg), the “Change in Blood Pressure” value is reported as -2%, the “Change in Cardiac Contractility” value is 11% and the “Change in Heart Rate” value is 2%. Further, in data set [6] (30 μg/kg), the “Change in Blood Pressure” value was -5%, the “Change in Cardiac Contractility” value was found to be 25% and the “Change in Heart Rate” value was 4%.
As for `COc1nc(C)c(-c2ccc3nccn3c2)cc1C#N` [Example 14, 5-(Imidazo[1,2-a]pyridin-6-yl)-2-methoxy-6-methyl-3-pyridinecarbonitrile], in data set [6] (300 μg/kg), the “Change in Blood Pressure” value is listed as -6%, the “Change in Cardiac Contractility” value was determined as 10% and the “Change in Heart Rate” value is 6%. Also, in data set [6] (1000 μg/kg), the “Change in Blood Pressure” value is reported as -4%, the “Change in Cardiac Contractility” value is 41% and the “Change in Heart Rate” value came out at 0%.
